Laboratory results taken from US10280190B2, “Nicotinic acid riboside or nicotinamide riboside compositions, reduced derivatives thereof, and the use thereof to enhance skin permeation in treating skin conditions” (ChromaDex Inc., priority 2015, dated 2019).

Tested on: A431 human epidermoid cells
Assay: Oxidative damage protection assay (Example 3), compound with 1 mM H2O2, alamar blue readout
Type: cell-based
Protocol: The cells were trypsinized with 0.25% trypsin EDTA solution for 2-3 minutes until the cells were dislodged. The cells were sub-cultured in a ratio of 1:3 for further growth and scale-up for the assay. The cells were trypsinized and counted to a density of 5,000 or 15,000 cells and seeded in 100 μL media per well, in 96-well clear bottom black plates. The outer wells at the periphery of the plates were left unneeded and were instead filled with media to reduce the edge effect during incubation. […] Each concentration was tested in 6 replicates.
Detection method used: Cell Titer blue (Promega, Cat# G8080).

CC(=O)OC[C@H]1O[C@@H](N2C=CCC(C(N)=O)=C2)[C@H](OC(C)=O)[C@@H]1OC(C)=O [NRH triacetate (2), 1-(2′,3′,5′-triacetyl-beta-D-ribofuranosyl)-1,4-dihydronicotinamide]
mitigating oxidative damage to human skin cells (Trial A, FIG. 1, 1 mM H2O2 for 20 hours, all doses (0.1, 0.3, 1 mM)): capable of mitigating oxidative damage | cytoprotection compared to positive controls (Trial A, FIG. 1, 1 mM H2O2 for 20 hours, dose-dependent, highest over 0.1-1 mM): up to 88% | cytoprotection compared to positive controls (Trial B, FIG. 2, 1 mM H2O2, compound at 1 mM): 94% | protection against oxidative damage in skin cells (composite of Trials A and B, FIG. 3): can protect against oxidative damage
